Data as given in patent US11753407B2, “Compounds for treating spinal muscular atrophy” (PTC Therapeutics, Inc., priority 2012, dated 2023).

What was measured:
[1] = tested on: SMN2 minigene mRNA (SMN2-A minigene) in HEK293H cells; test: SMN2 minigene mRNA splicing RT-qPCR assay in cultured cells; type: cell-based, human; conditions: for SMN2 minigene FL mRNA: HEK293H cells with SMN2 minigene, rising concentrations, 24 hr, relative to vehicle (FIG. 3); for EC (1.5-fold increase): Homo sapiens, HEK293-H, concentration increasing full length SMN2 mRNA 1.5-fold relative to vehicle-treated cells, HEK293H cells with SMN2-A minigene, 24 hours, 7-point concentration data, read-out: EC1.5x for production of full length SMN2 mRNA; for exon 7 inclusion: SMN2 minigene, relative to untreated cells (FIG. 3)
Procedure, shortened: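 EC1.5× = concentration raising full-length SMN2 minigene mRNA 1.5-fold over vehicle, from 7-point curves in duplicate. Stably transfected HEK293H cells exposed 24 h at 37 °C; lysates assayed by multiplex RT-qPCR, minigene FL signal normalized to GAPDH via modified ΔΔCt.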

[2] = tested on: SMN2 mRNA in tissues of C/C-allele SMA mice; test: Endogenous SMN2 mRNA end-point semi-quantitative RT-PCR splicing assay in animal tissues; type: in vivo; conditions: brain and muscle, BID oral gavage 10 days, end-point RT-PCR (FIG. 7)
Method: The endpoint reverse transcription-PCR (RT-PCR) splicing assay is used to quantify the levels of the full length and Δ7 SMN2 mRNA in tissues from mice treated with test compound.
Protocol. C/C-allele SMA mice are treated by oral gavage BID for 10 days with test compounds in 0.5% HPMC and 0.1% Tween-80. Tissue samples are collected and snap frozen for RNA purification.
Tissue samples (20-40 mg) are homogenized in QIAzol Lysis Reagent for 2 minutes at 20 Hz in the TissueLyser II using one stainless steel bead. After addition of chloroform, the homogenate is separated into aqueous and organic phases by centrifugation. RNA partitioned to the upper, aqueous phase is extracted and ethanol is added to provide appropriate binding conditions. The sample is then applied to the RNeasy spin column from the RNeasy Mini Kit, where total RNA binds to the membrane. The RNA is eluted in RNase-free water then stored at −20° C.
SMN2 spliced products are identified using the following amplification primers in Table 8. These primers hybridize to a nucleotide sequence in exon 6 (SMN Forward D, SEQ ID NO. 13) (nucleotide 22 to nucleotide 46) and exon 8 (SMN Reverse C, SEQ ID NO. 12), common to human SMN1 and SMN2 mRNA.
To synthesize cDNA, combine 1 μL of RNA solution (25-50 ng), 4 μL of 5× iScript reaction mix, 1 μL of reverse transcriptase, and 10 μL of water are combined and incubates 25° C. for 5 min followed by 42° C. for 30 min followed by 85° C. for 5 min. The cDNA solution is stored at −20° C.
To perform endpoint PCR, 5 μL of cDNA, 0.2 μL of 100 μM forward primer, 0.2 μL of 100 μM reverse primer, and 22.5 μL of polymerase super mix are combined in a 96 well semiskirted PCR plate. PCR is carried out at the following temperatures for the indicated time: Step 1: 94° C. (2 min), Step 2: 94° C. (30 sec), Step 3: 55° C. (30 sec), Step 4: 68° C. (1 min), then repeat Steps 2 to 4 for a total of 33 cycles, then hold at 4° C.
10 μL of each PCR sample is electrophoretically separated on a 2% agarose E-gel for 14 minutes stained with dsDNA staining reagents (e.g., ethidium bromide) and visualized using a gel imager.

Row | SMILES | SMN2 minigene FL mRNA [1] | EC (1.5-fold increase) [1] | exon 7 inclusion [1] | SMN2 FL mRNA [2] | SMN2 Δ7 mRNA [2]
1 | COc1ccc(-c2cc(=O)n3cc(N4CCNCC4)ccc3n2)cc1OC [Cpd 6, 2-(3,4-dimethoxyphenyl)-7-(piperazin-1-yl)-4H-pyrido[1,2-a]pyrimidin-4-one] | increased SMN2 minigene FL mRNA at low concentrations | < 0.1 µM | fully restored exon 7 inclusion | progressively more SMN2 FL mRNA | less SMN2 Δ7 mRNA
2 | Cc1cn2nc(-c3cc(=O)n4cc(N5CCN(C)CC5)ccc4n3)cc2c(C)n1 [Cpd 170, 2-(4,6-dimethylpyrazolo[1,5-a]pyrazin-2-yl)-7-(4-methylpiperazin-1-yl)-4H-pyrido[1,2-a]pyrimidin-4-one] | increased SMN2 minigene FL mRNA at low concentrations | < 0.1 µM | fully restored exon 7 inclusion | progressively more SMN2 FL mRNA | less SMN2 Δ7 mRNA
